Source: patent US12496297B1, “Compositions of autophagy modulating agents and uses thereof” (Washington University, priority 2020, dated 2025)
“Also recorded” adds a separate entry of the source. Values belong to the molecule of their own block, whether it stands above or below them.

Tests used:
misfolded ATZ = conditions: mammalian cell models of ATD; previously shown; cited from earlier work
PiZ mouse model of ATD = experiment: PiZ mouse model of ATD, oral gavage; format: in vivo; conditions: for hepatic / liver fibrosis (Sirius Red staining): G2-19: 3 weeks of treatment vs placebo
Method: The PiZ mouse model has been described previously (Hidvegi 2010 Science 329 (5988): 229-232). For experiments involving drug administration in mice in vivo, doses of 5-50 mg/kg/day for the G2 analog were given for 3 weeks, and then liver histological and biochemical characteristics were assessed exactly as previously described (Hidvegi 2005J Biol Chem 280 (47): 39002-39015). Each experimental group contained 4-6 four- to six-month old male mice randomly chosen from littermates. G2 analogs were delivered by oral gavage. Control mice were littermates given DMSO by gavage. The outcome was determined by evaluating 1) the hepatic ATZ load by immunoblotting with anti-AT, immunostaining with PAS/D; 2) hepatic fibrosis using Sirius Red staining; 3) autophagy by immunoblotting with anti-LC3 and anti-p62, and imaging for GFP+autophagosomes; 4) monitoring blood glucose levels by glucometer and blood insulin levels by ELISA Wide Range Assay (CrystalChem). For immunostaining, liver samples were fixed in 10% Formalin, followed by staining with PAS after diastase and Sirius Red using standard techniques. Quantitative evaluation of immunostaining and histochemical staining was carried out by a member of the team that was blinded to group allocation. Blood glucose and insulin levels were quantified as previously described (Wang 2019 PLOS One 14: e0209748).
For immunoblot analysis of proteins in liver, the liver was snap frozen in liquid nitrogen and stored at −80° C. Liver was homogenized in 50 mM Tris-HCl pH 8.0, 150 mM NaCl, 2 mM KCl, 2 mM MgCl2, 0.5% Triton X-100, 0.5% deoxycholic acid containing 0.1 mM […] and Complete protease inhibitor cocktail from Roche. Total protein concentration was measured by BCA assay (Pierce) and followed by western blotting as described previously.

[1] = tested on: α1-antitrypsin Z variant (ATZ); experiment: Steady state levels of ATZ in HTO/Z cell line (immunoblot); activity of G2 analogs; format: cell-based, human; conditions: for Activity: G2 and G2 analogs, positive activity if shown to have any activity, not quantified; for effect on cellular ATZ levels: 48 hrs incubation, immunoblot, FIG. 8 / FIG. 14; for IC50: TABLE 1, assay not given
Method: For experiments with G2 analogs, Tet-off inducible cell lines were cultured in absence of doxycycline for at least 12 days to ensure expression of […] or its variants. The cells were then sub-cultured into separate monolayers in fresh complete growth medium and incubated for 48 hours in the absence or presence of G2 analog. […] All compounds available commercially were purchased except for G2-22, which was synthesized with routine chemistry.
Cells were lysed in NP40 buffer and then separated into insoluble and soluble fractions according to a previously established technique. Samples were subjected to immunoblot analysis for AT and GAPDH. For immmunoblot analysis to detect AT or GAPDH, cells were lysed in 50 mM Tris-HCl, 150 mM NaCl, 1% NP-40, pH 8.0. Protein concentrations were determined by BCA protein assay (Pierce Biotechnology, Rockford, IL). […] The membranes were blocked in 5% milk and then incubated overnight at 4° C. with primary antibody for AT (1:1000, Diasorin), LC3 (1:2000, Sigma), p62 (1:1000, Cell signaling, Danvers, MA), ATG5 (1:1000, Cell signaling), mTOR substrate sampler (1:1000 for all antibodies, Cell signaling). Donkey anti-goat Ig (Jackson Labs, Bar Harbor, ME), goat anti-rabbit lg (1:50,000), or goat anti-mouse Ig (1:50,000) were used as secondary antibodies in TBST at RT, 1 hour. Blots were visualized with ECL or West Femto from Pierce. Membranes were re-probed with GAPDH (1:5000, Sigma) as loading control. Insoluble samples were stained with Gel Code Blue as loading control.

[2] = tested on: C. elegans model of ATD (sGFP::ATZ); experiment: Quantification of ATZ accumulation in C. elegans model of ATD (Z worm); format: in vivo; conditions: 24 h incubation, FIG. 9
Method: The C. elegans strain VK1882 (vkls1882 [nhx-2p::sGFP::ATZ; myo-2p::mCherry) was routinely cultured at 20° C. on nematode growth medium plates seeded with E. coli strain OP50. Quantitative analysis of ATZ accumulation was carried out by detection of fluorescence using the Thermofisher CellInsight CX-7 high content imager as previously described. L4 stage animals were placed into wells of 384-well plates (30 per well) containing G2 analogs or an equivalent volume of DMSO. Following incubation at 20° C. for 24 hours, sodium azide was added to a final concentration of […] to anesthetize the animals and then each well was imaged on the CX-7 high content imager for quantification.

[3] = tested on: HTT inclusion bodies (IBs) in HD-MSNs; experiment: HTT inclusion bodies / mHTT aggregation in HD-MSNs; format: cell-based, human
Method: Adult dermal fibroblasts from symptomatic HD patients (Coriell NINDS and NIGMS Repositories: ND33947, ND30013, GM02173, GM04230, GM04198, GM02147), presymptomatic HD patients (GM04717, GM04861, GM04855, GM04831, GM04857, GM04829), and healthy controls (GM02171) were acquired from the Coriell Institute for Medical Research. The lentiviral cocktail of rtTA, pTight-9-124-BclxL, CTIP2, MYT1L, DLX1, and DLX2 was added to human fibroblasts for 16 h, then cells were washed and fed with fibroblasts media containing 1 μg/mL doxycycline (DOX). Briefly, transduced fibroblasts were maintained in fibroblasts media for two days with doxycycline before selection with Puromycin ([…]) on day 3, then were plated onto poly-ornithine, fibronectin, and laminin-coated coverslips on day 5. Cells were subsequently maintained in NeurobasalA (Gibco) media containing B-27 plus supplement and GlutaMAX supplemented with valproic acid (1 mM), dibutyryl cAMP ([…]), BDNF (10 ng/ml), NT-3 (10 ng/ml), and RA ([…]) until day 13. […]
Reprogramming cells were fixed with 4% paraformaldehyde (Electron Microscopy Sciences, #15710) for 20 min at room temperature (RT), and then permeabilized with 0.2% Triton X-100 for 10 min at RT. […] Images were captured using a Leica SP5X white light laser confocal system with Leica Application Suite (LAS) Advanced Fluorescence 2.7.3.9723.

[4] = tested on: striatal neurons from control 2171WT; experiment: Cell death (SytoX assay) in striatal neurons from control individual; format: cell-based, human; conditions: doses of 5 and 10 μM; data not shown
Method: (§1) Striatal neurons from Huntington's patient GM 04198 and control 2171WT were prepared as previously described. Cells, at 24 days after induction, were incubated with G2 analog or an equivalent volume of DMSO for 14 days (drug/DMSO added with medium change every 4 days) and then cell death was determined by SytoX assay as previously described.

[5] = tested on: striatal neurons from Huntington's patient GM 04198; experiment: Cell death (SytoX assay) in striatal neurons from Huntington's patient; format: cell-based, human
Method: as §1

HD-MSNs [6] = experiment: Neuronal cell death assay in HD-MSNs (SYTOX, Caspase-3/7, Annexin V); format: cell-based, human
Method: (§2) Adult dermal fibroblasts from symptomatic HD patients (Coriell NINDS and NIGMS Repositories: ND33947, ND30013, GM02173, GM04230, GM04198, GM02147), presymptomatic HD patients (GM04717, GM04861, GM04855, GM04831, GM04857, GM04829), and healthy controls (GM02171) were acquired from the Coriell Institute for Medical Research. The lentiviral cocktail of rtTA, pTight-9-124-BclxL, CTIP2, MYT1L, DLX1, and DLX2 was added to human fibroblasts for 16 h, then cells were washed and fed with fibroblasts media containing 1 μg/mL doxycycline (DOX). […]
0.1 μM SYTOX gene nucleic acid stain (Invitrogen, S7020) and 1 μl/mL of Hoeschst 33342 (Thermo Scientific, 66249) were added into cell medium. […] Images were taken using Leica DMI 4000B inverted microscope with Leica Application Suite (LAS) Advanced Fluorescence.
Cells were treated with 1× Essen Bioscience IncuCyte® Caspase-3/7 Green Reagent (final concentration 5 µM) and 1× Essen Bioscience IncuCyte® Annexin V Green or Red Reagent on day 22 or 26. […] Images were analyzed for the number of green or red objects per well. For the apoptotic index, the number of green or red objects (i.n., fluorescence cells) divided by phase area (μm2) per well was quantified by the IncuCyte® S3 Live-Cell Analysis System.

[7] = tested on: α1-antitrypsin Z variant (ATZ); experiment: Steady state levels of ATZ in HTO/Z cell line (immunoblot); activity of G2 analogs; format: cell-based, human; conditions: 24 hr treatment, 0.5 and 2.5 μM, FIG. 22C
HD-MSNs [8] = experiment: Autophagy measurement in HD-MSNs (p62 immunoblot, CYTO-ID green); format: cell-based, human; conditions: 0.5 μM vs DMSO
Method: To test whether the differentially expressed genetic pathways between pre-HD-MSNs and HD-MSNs would be reflected at the cellular level, whether the autophagy activity would be different between pre-HD- and HD-MSNs was assessed. CYTO-ID assay, a fluorescence-based live-cell assay for accumulated autophagic vacuoles was performed as well as immunoblot for p62/SQSTM1 expression, a marker used to monitor autophagic activity due to its binding to LC3 and degradation by autophagy.
as §2
Cells were lysed in a 2% SDS buffer. The concentrations of whole-cell lysates were measured using the Pierce BCA protein assay kit (Thermo Scientific, #23227). […]

[9] = PiZ mouse, marker of autophagic activity

Structure (SMILES): COc1ccc(Cl)cc1C(N)=O [G2, 5-chloro-2-methoxybenzamide]
autophagic degradation of misfolded ATZ (misfolded ATZ): promoted autophagic degradation
hepatic ATZ load (PiZ mouse model of ATD; PiZ mouse): significant reduction of hepatic ATZ load
insulin secretion (PiZ mouse model of ATD; PiZ mouse): without affecting insulin secretion
LC3-II conversion in the liver (PiZ mouse model of ATD; [9]): increased LC3-II conversion
p62 levels in the liver (PiZ mouse model of ATD; [9]): decreased p62 levels
hepatic / liver fibrosis (Sirius Red staining) (PiZ mouse model of ATD; PiZ mouse): significant reduction
liver damage (PiZ mouse model of ATD; mouse model of ATD): reverse liver damage
Activity [1]: Active

Structure (SMILES): Cn1ccc2cc(Cl)ccc2c1=O [G2-19, 6-chloro-2-methylisoquinolin-1(2H)-one]
hepatic ATZ load (PiZ mouse model of ATD; PiZ mouse): reduced hepatic ATZ load
insulin secretion (PiZ mouse model of ATD; PiZ mouse): without affecting insulin secretion
hepatic / liver fibrosis (Sirius Red staining) (PiZ mouse model of ATD; PiZ mouse): marked and statistically significant decrease
effect on ATZ levels in intestinal cells of the ATZ worm ([2]; GFP/RFP fluorescence): dose-dependent decrease in ATZ levels; also recorded: not as potent as positive control prochlorperazine (PCP)
reduction in ATZ levels (fluorescence) ([2]; at 40 µM): ~50%
effect on cellular ATZ levels [1]: reduces ATZ levels in a dose-dependent manner; also recorded: more potent than G2-3
Activity [1]: Active (Highly Active)
reduction of ATZ levels ([1]; dose of 5 μM, 48 hrs, FIG. 8): 60%
HTT inclusion body (IB) ([3]; HD-MSNs, compared to the inactive form, FIG. 13): lowers HTT inclusion body (IB)
neuronal death (percent SYTOX positive cells) [4]: no effect
cell death (percent SYTOX positive cells) ([5]; FIG. 11, dose-dependent between 0.5 and 10 μM, 14 days): reduces cell death
neuronal death (percent SYTOX positive cells) ([5]; second experiment, FIG. 12, doses of 5 and 10 μM): reduced neuronal death

Structure (SMILES): O=c1ccc2c(Cl)cc(Cl)cc2[nH]1 [G2-115, 5,7-dichloroquinolin-2(1H)-one]
MSN death by Caspase 3/7 activation and Annexin V signals (HD-MSNs [6]; HD.40-MSNs three concentrations PID 30 (FIG. 18I), three patients 0.5 μM (FIG. 18J)): significant reduction in MSN death in a dose-dependent manner
MSN death measured by SYTOX (HD-MSNs [6]; HD.44-MSNs, 0.125, 0.25, or 0.5 µM, PID 35, FIG. 18H): significant reduction in MSN death in a dose-dependent manner
steady-state levels of ATZ [7]: decreased the steady-state levels of ATZ
Activity [1]: Active
IC50 [1]: 100 to 1000 nM
mHTT aggregation ([3]; HD-MSNs from three patients, 0.5 μM vs DMSO, PID30, FIG. 18K): significantly lower levels of mHTT aggregation
p62/SQSTM1 protein levels (immunoblot) (HD-MSNs [8]; PID26, FIG. 18F): decrease in p62/SQSTM1 protein levels
CYTO-ID signal (autophagic vacuoles) (HD-MSNs [8]; PID 26, FIG. 18G): increase in CYTO-ID signal

IC50 [1]: 1000 to 10000 nM
Structure (SMILES): O=c1ccc2c(Cl)cc(-c3ccccc3)cc2[nH]1 [G2-233, 5-chloro-7-phenylquinolin-2(1H)-one]
Activity [1]: Active

IC50 [1]: 1000 to 10000 nM
Structure (SMILES): O=c1ccc2c(Cl)cc(N3CCCCC3)cc2[nH]1 [G2-235, 5-chloro-7-(piperidin-1-yl)quinolin-2(1H)-one]
Activity [1]: Active

IC50 [1]: 100 to 1000 nM
Structure (SMILES): O=C(c1cc(Cl)c2ccc(=O)[nH]c2c1)N1CCCCC1 [G2-237, 5-chloro-7-(piperidine-1-carbonyl)quinolin-2(1H)-one]
effect on cellular ATZ levels [1]: reduce ATZ levels in a dose-dependent manner
Activity [1]: Active

IC50 [1]: 1000 to 10000 nM
Structure (SMILES): CCCCCCOc1cc(Cl)c2ccc(=O)[nH]c2c1 [G-211, 5-chloro-7-(hexyloxy)quinolin-2(1H)-one]
Activity [1]: Active
